Active and inactive are the calls of the source. No cut-off for these calls is given here.
Key:
Rho GTPase Rac1/CDC42 = Rho GTPase Rac1/CDC42 (Homo sapiens, UniProt P60953+P63000); experiment: Inhibition of RAC1/CDC42 in human ovarian cancer cells; type: cell-based
[1] = Inhibition of PAK1/COX2 in human A549 cells harboring Ki-RAS mutant assessed as cell growth inhibition measured after 72 hrs by MTT assay; type: cell-based; settings: A549, 72 h
B16-F10 = experiment: Cytotoxicity against PAK1-independent mouse B16F10 cells assessed as cell growth inhibition measured after 72 hrs by MTT assay; type: functional, cell-based; settings: B16-F10, 72 h
[2] = target: Serine/threonine-protein kinase PAK 1 (Homo sapiens, UniProt Q13153); experiment: Inhibition of PAK1 in human A549 cells using myelin basic protein as substrate preincubated for 24 hrs followed by PAK1 immunoprecipation and substrate addition measured after 60 mins by ATP-Glo kinase assay
[3] = target: T1, Prostaglandin G/H synthase 2 (Homo sapiens, UniProt P35354); experiment: Inhibition of recombinant human COX2 using arachidonic acid as substrate measured after 2 to 5 mins
T1 sequence (P35354 whole entry): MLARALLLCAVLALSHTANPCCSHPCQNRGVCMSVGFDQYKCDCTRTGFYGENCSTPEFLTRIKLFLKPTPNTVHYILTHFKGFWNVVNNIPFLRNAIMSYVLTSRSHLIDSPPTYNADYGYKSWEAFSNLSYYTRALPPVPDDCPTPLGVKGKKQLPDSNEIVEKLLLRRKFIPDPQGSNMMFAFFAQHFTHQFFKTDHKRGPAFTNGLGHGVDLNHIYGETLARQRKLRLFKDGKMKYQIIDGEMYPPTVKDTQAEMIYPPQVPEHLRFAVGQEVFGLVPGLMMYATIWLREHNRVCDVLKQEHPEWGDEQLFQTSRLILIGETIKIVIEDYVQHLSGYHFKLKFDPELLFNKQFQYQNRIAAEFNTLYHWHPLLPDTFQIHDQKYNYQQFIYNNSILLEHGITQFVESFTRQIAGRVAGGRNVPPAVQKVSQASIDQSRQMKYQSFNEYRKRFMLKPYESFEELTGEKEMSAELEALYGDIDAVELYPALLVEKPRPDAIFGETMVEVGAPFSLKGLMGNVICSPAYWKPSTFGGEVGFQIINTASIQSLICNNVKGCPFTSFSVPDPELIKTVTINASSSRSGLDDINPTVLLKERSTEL

EMT6 = experiment: Cytotoxicity against multidrug-resistant mouse EMT6 cells at 100 uM measured after 24 hrs by MTT assay; type: functional, cell-based
[4] = Drug-uptake in multidrug-resistant mouse EMT6 cells at 100 uM measured after 1 hr by HPLC method; type: ADME, cell-based; settings: emt6, 1 h
[5] = Inhibition of PAK1/COX2 in human A549 cells harboring Ki-RAS mutant assessed as cell growth inhibition measured after 72 hrs by trypan blue assay; type: cell-based; settings: A549, 72 h
[6] = Drug metabolism in human A549 cells assessed as mitochondrial reductase mediated azo dye formation by colorimetric method; type: ADME, cell-based
[7] = Drug-uptake in multidrug-resistant mouse EMT6 cells at 100 uM measured after 6 hrs by HPLC method; type: ADME, cell-based; settings: emt6, 6 h
LIM1899 = experiment: Cytotoxicity against human LIM1899 cells up to 100 uM measured after 24 hrs by trypan blue assay; type: functional, cell-based

Chain of Serine/threonine-protein kinase PAK 1 (Q13153 whole entry): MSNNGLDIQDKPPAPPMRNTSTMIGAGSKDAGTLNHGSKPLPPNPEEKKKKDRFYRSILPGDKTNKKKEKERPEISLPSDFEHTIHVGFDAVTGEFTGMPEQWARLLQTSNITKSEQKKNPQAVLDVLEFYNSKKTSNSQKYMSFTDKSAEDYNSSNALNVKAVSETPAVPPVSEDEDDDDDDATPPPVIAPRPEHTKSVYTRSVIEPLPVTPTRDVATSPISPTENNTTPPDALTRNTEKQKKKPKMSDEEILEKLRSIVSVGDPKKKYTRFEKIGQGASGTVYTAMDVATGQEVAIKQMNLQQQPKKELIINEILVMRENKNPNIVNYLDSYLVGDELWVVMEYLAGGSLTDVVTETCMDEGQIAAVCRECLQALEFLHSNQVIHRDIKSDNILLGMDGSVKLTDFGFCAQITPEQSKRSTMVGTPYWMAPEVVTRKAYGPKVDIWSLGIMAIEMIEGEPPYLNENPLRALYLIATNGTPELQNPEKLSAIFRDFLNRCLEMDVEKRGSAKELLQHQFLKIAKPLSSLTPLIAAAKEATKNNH

Structure (SMILES)	IC50 (Rho GTPase Rac1/CDC42) [nM]	IC50 [1] [nM]	IC50 (B16-F10) [nM]	IC50 [2] [nM]	IC50 [3] [nM]	Activity (EMT6)	Drug uptake [4] [nmol]	IC50 [5] [nM]	Drug metabolism [6]	Drug uptake [7]	Activity (LIM1899)
O=C(c1ccccc1)c1ccc2n1CC[C@H]2C(=O)O	1000										
O=C(c1ccccc1)c1ccc2n1CCC2C(=O)O (stereo not given) [KETOROLAC]	2000	13000	30000	36000	140	inactive	0.37				
COc1ccccc1-n1cc(COC(=O)C2CCn3c(C(=O)c4ccccc4)ccc32)nn1 (stereo not given)				65		inactive	3.75	24	Metabolite_Detected	Not Active	inactive

— ChEMBL document CHEMBL4002563 (Eur J Med Chem, 2017)
